Test results published in patent US20160082105A1, “Antibody Buffering of a Ligand in Vivo” (ARROWSMITH TECHNOLOGIES CORPORATION, priority 2004, published 2016).
Where two headings read alike, the source gives them in different places.

Key:
[1] = Antibody buffering in plasma: total Ox after jugular infusion; assay type: in vivo, rat; conditions: for t1/2 of Ox (FIG. 6): 5 animals per point
Description: Timepoints were again taken and analyzed as above.
To determine its pharmacokinetic behavior, tritiated Ox was infused into a rat through a jugular cannula, and elimination of Ox was followed through blood sampling, separation of the plasma by centrifugation, and scintillation counting of the plasma.

[2] = Description: Male Sprague-Dawley rats (300 g) were obtained from Zivic Laboratories, Inc. (Zelienople, Pa.). Each rat underwent surgery to place a cannula in the right lateral ventricle for injections and a second cannula in the cisterna magna for cerebral spinal fluid (CSF) sampling. Briefly, the rat was anesthetized with 2.5% isoflurane and fixed in a stereotaxic device. Normal body temperature was maintained through a heating pad. A linear midline incision exposed the frontal, parietal, and occipital bones. The lateral ventricle was located using the coordinates (1.8 mm posterior, 3.8 mm lateral, and 4 mm ventral from bregma) obtained from a stereotaxic atlas of the rat (Paxinos et al. The Rat Brain in Stereotaxic Coordinates (Academic Press 1998)). A hole was drilled through the skull, a cannula was inserted, and it was fixed to the skull using VetBond (3M, Minneapolis, Minn.) and dental cement. […] The cannula was inserted to a depth of 2 mm below the bottom of the skull and fixed with VetBond and dental cement. Screw-capped cannula dummy wires were inserted into the cannula guides to maintain a closed system. Rats were allowed to recover for at least 24 hours before ventricular injection.
For experiments for which injections and withdrawals of CSF were done via the same site in the cisterna magna (CM), male Sprague-Dawley rats (250 g) were obtained from Charles River Laboratories (Wilmington, Mass.). […] Rats were allowed to rest no more than three days after arrival prior to experimentation to reduce the risk of cannula blockage.
Samples were prepared for injection: 104 pmol anti-Ox antibody and 52 pmol Ox; 104 pmol of D1.3 control antibody and 52 pmol Ox; and 52 pmol Ox alone. Each sample was diluted to 10 μl with sterile PBS. The samples were warmed to 37° C., and then infused over 1 minute through the intraventricular or cisternal cannula in Sprague-Dawley rats. The end of the infusion was designated as time zero (0). At various timepoints, 10 μl of CSF was withdrawn. For one set of rats, the 10 μl CSF was counted directly by placing it into 5 ml of Scintiverse II and counting in a Beckman LS6500 Scintillation Counter. For another set of rats, the 10 μl CSF was diluted into 100 μl ice cold PBS and used in bound vs. free Ox experiments described below.
Samples of NQ11/7.12 and Ox were prepared and infused into the cisternal cannula of Sprague-Dawley rats from Charles River Laboratories as described above for the antibody buffering protocol. Ten μl of CSF was taken from the cisterna magna at time 1, 10, 20, 30, 60, 90 and 120 minutes. The 10 μl CSF samples were either counted directly or diluted into 100 μl ice cold PBS and loaded onto a 187.1 column to separate bound and free Ox. At 24 hours and at 48 hours following the first administration, 52 pmol Ox in 10 μl total volume (diluted with sterile PBS) was infused over 1 minute through the cisterna magna cannula. Timepoints were again taken and analyzed as above.
To determine the pharmacokinetic behavior of Ox in the CSF, tritiated Ox was infused into a rat through its intraventricular cannula, and elimination of Ox was followed through CSF sampling from the cisterna magna (CM) cannula. Sampling was done from the cisterna magna because it is the largest CSF compartment. Its location between the cerebellum and the upper brain stem and its large size make it relatively easy to access CSF for sampling and scintillation counting (van den Berg et al., J. Neurosci. Methods 116:99-107 (2002)).

[3] = Ox with D1.3, biphasic elimination

SMILES: O=C(O)CCCNC=C1N=C(c2ccccc2)OC1=O [Ox, 2-phenyl-oxazol-5-one-γ-amino butyrate]
- increase in Ox half-life in plasma with anti-Ox antibody ([1]; NQ11/7.12 vs D1.3): seventeen-fold
- t1/2 of Ox (FIG. 6) ([1]; Ox administered with NQ11/7.12, jugular vein cannula): 19.7 min
- t1/2 of Ox (FIG. 6) ([1]; Ox administered with control antibody D1.3, jugular vein cannula): 1.2 min
- total Ox pharmacokinetic lifetime in plasma, long term buffering ([1]; Ox alone re-administered at 24 hours and 48 hours after a single NQ11/7.12 + Ox infusion): only small changes
- Ox elimination half-life from plasma ([1]; Ox alone, jugular infusion): 1.2 min
- adverse effects in the animal subjects ([1]; Ox infused with NQ11/7.12 or D1.3, rats): No adverse effects were noted
- Ox elimination half-life from plasma, major (fast) phase [1, 3]: 1.2 ± 0.2 min
- Ox elimination half-life from plasma, smaller (slow) phase [1, 3]: 10 ± 2 min
- Ox elimination half-life from plasma ([1]; Ox with twice the molar amount of NQ11/7.12): 20 ± 2 min
- Ox concentration in the cellular fraction of blood, of the total Ox concentration in the plasma ([1]; rat, in vivo): 1-2%
- Ox elimination half-life from the cisterna magna ([2]; Ox alone (no NQ11/7.12), intraventricular infusion, cisternal CSF sampling): 1.2 min
- total Ox pharmacokinetic lifetime in CSF, long term buffering ([2]; Ox alone re-administered at 24 hours and 48 hours after a single NQ11/7.12 + Ox cisternal infusion): kinetic profile between the profile observed when Ox was initially administered with NQ11/7.12 and the profile of Ox when administered with D1.3
- Ox elimination half-life from CSF ([2]; Ox co-administered with control antibody D1.3, cisternal infusion): 1.0 min
- Ox elimination half-life from CSF ([2]; Ox co-administered with twice the molar amount of NQ11/7.12, cisternal infusion): 10 min
- time of peak Ox concentration in the cisterna magna ([2]; Ox with twice the molar amount of NQ11/7.12, intraventricular infusion): around 5 minutes
- peak Ox concentration in the cisterna magna ([2]; Ox without antibody buffer, intraventricular infusion): never attained a peak concentration
- increase in Ox half-life in CSF, NQ11/7.12 vs D1.3 ([2]; cisternal infusion): ten-fold
